Reference: paper PMC11320730, “5-Methoxy-2-aminoindane Reverses Diet-Induced Obesity and Improves Metabolic Parameters in Mice: A Potential New Class of Antiobesity Therapeutics” (ACS Pharmacology & Translational Science, 2024)

Experiments:
[1] = tested on: hepatic lipid metabolism regulators; assay: Western blotting of liver proteins in DIO mice; type: in vivo; conditions: 40 mg/kg/day
Method: (§1) Male C57BL/6 mice were used to establish DIO by feeding them a high-fat diet (HFD; 60% cal/L fat, 20% cal/L protein, and 20% cal/L carbohydrates; Research Diet, D12492) for 18 weeks. After this period, mice were treated with either vehicle (sterile water, N = 8) or MEAI (N = 11) daily for 28 days by gavage at a dose of 40 mg/kg/day. Age-matched control mice (N = 10) on a standard diet (STD; 14% kcal fat, 24% kcal protein, 62% kcal carbohydrates; NIH-31 rodent diet) received vehicle daily. The body weight of all mice was monitored daily, and total body fat and lean mass were determined by EchoMRI-100H (Echo Medical Systems LLC, Houston, Texas, USA). On day 29, at the end of the experimental period, mice were euthanized by a cervical dislocation under anesthesia. The kidneys, brain, liver, and fat pads were removed and weighed, and samples were either snap-frozen or fixed in buffered 4% formalin. Trunk blood was collected to determine the biochemical parameters.
Liver samples were prepared in a RIPA buffer (25 mM Tris–HCl pH 7.6, 150 mM NaCl, 1% NP-40, 1% sodium deoxycholate, 0.1% SDS), and the homogenates were prepared by using the Bullet Blender and zirconium oxide beads (catalog no. ZROB10, Next Advanced, Inc., New York, USA). Protein concentrations were measured with the Pierce BCA Protein Assay Kit (catalog no. 23225, Thermo Scientific, Illinois, USA). Samples were resolved by SDS-PAGE (4–15% acrylamide, 150 V) and transferred to PVDF or nitrocellulose membranes using the Trans-Blot Turbo Transfer System (Bio-Rad, California). The membranes were then incubated for 1 h in 5% milk (in 1× M TBS-T) to block unspecific binding. The membranes were incubated overnight with cluster of differentiation 36 (CD36; Abcam, Cambridge, UK; Cat# ab252922), stearoyl-CoA desaturase 1 (SCD1; Cell Signaling Technology, Danvers, Massachusetts; Cat# 2794S), fatty acid synthase (FASN; Cell Signaling Technology, Danvers, Massachusetts, USA; Cat# 3180S), 5′-adenosine monophosphate (AMP)-activated protein kinase alpha (AMPKα; Cell Signaling Technology, Danvers, Massachusetts, USA; Cat# 2532S), phosphorylated-AMPKα (Cell Signaling Technology, Danvers, Massachusetts, USA; Cat# 2535S), acetyl-CoA carboxylase (ACC; Cell Signaling Technology, Danvers, Massachusetts, USA; Cat# 3662S), and phosphorylated ACC (Cell Signaling Technology, Danvers, Massachusetts, USA; Cat# 3661S) antibodies at 4 °C. Antirabbit/mouse horseradish peroxidase (HRP)-conjugated secondary antibodies were used for 1 h at room temperature, followed by chemiluminescence detection using Clarity Western ECL Blotting Substrate (Bio-Rad, California). Densitometry was quantified by using ImageJ software. Quantification was normalized to anti-β actin antibody (Abcam, Cambridge, UK; Cat# ab49900) or valosin-containing protein (VCP) (Abcam, Cambridge, UK; Cat# ab204290).

DIO C57BL/6 mice [2] = assay: Blood biochemistry in DIO mice; type: in vivo; conditions: 40 mg/kg/day
Method: as §1
Serum levels of alanine aminotransferase (ALT), aspartate aminotransferase (AST), alkaline phosphatase (ALP), cholesterol, triglycerides, high-density lipoprotein (HDL), and low-density lipoprotein (LDL) were quantified post-termination using the Cobas C-111 chemistry analyzer (Roche, Switzerland). Fasting blood glucose was measured using the Contour glucometer (Bayer, Pittsburgh, Pennsylvania, USA), while serum insulin was determined using an Ultra-Sensitive Mouse Insulin ELISA kit (Cat# 90080, Crystal Chem, Inc., Elk Grove Village, Illinois, USA). Serum-free fatty acid content was determined using a Free Fatty Acid Assay Kit (Cat# ab65341, Abcam, Cambridge, UK).

MAO-A = tested on: MAO-A; design: method as in PMID 29458138; conditions: cited from earlier work
MAO-B = tested on: MAO-B; design: method as in PMID 29458138; conditions: cited from earlier work
5-HT2B = 5-HT2B (Homo sapiens, UniProt P41595); assay: 5-HT2B calcium influx assay (agonist) in BA/F3 cells; type: cell-based; design: host or cells: BA/F3 cells
Sequence of 5-HT2B (P41595 whole entry): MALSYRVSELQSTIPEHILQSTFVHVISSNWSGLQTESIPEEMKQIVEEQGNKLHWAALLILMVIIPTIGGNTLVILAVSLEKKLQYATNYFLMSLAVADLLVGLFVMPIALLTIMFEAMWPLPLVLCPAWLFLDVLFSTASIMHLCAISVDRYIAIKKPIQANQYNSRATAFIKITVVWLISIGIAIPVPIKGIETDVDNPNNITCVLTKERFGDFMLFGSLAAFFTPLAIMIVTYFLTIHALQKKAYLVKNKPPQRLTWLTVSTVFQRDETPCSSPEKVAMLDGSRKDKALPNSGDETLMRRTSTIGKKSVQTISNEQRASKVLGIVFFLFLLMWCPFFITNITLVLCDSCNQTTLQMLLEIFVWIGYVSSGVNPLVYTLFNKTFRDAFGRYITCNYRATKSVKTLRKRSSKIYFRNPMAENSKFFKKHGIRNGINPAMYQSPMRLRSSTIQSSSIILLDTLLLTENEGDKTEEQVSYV

DIO C57BL/6 mice [3] = assay: Effect of MEAI on obesity: body weight and body composition (EchoMRI) in DIO mice; type: in vivo; conditions: 28 days
Method: as §1

For COc1ccc2c(c1)CC(N)C2.Cl (stereo not shown) [MEAI, 2,3-Dihydro-5-methoxy-1H-inden-2-amine hydrochloride], the CD36 protein levels [1] was “remained unchanged”, the FASN protein levels [1] was “significantly reduced” and the SCD1 protein levels [1] was “significantly reduced”. The “phosphorylated ACC (p-ACC) levels” value [1] was “did not significantly affect”, the “phosphorylated AMPK (p-AMPK)” value [1] was “trend toward increased” and the insulin levels (DIO C57BL/6 mice [2]) was “reduced”. For the same molecule, the circulating leptin levels (DIO C57BL/6 mice [2]; 28 days, vs HFD vehicle) was “effectively countered the HFD-induced elevation”, the serum serotonin levels (DIO C57BL/6 mice [2]; 28 days, vs HFD vehicle) was “did not significantly alter” and the “circulating levels of adiponectin” value (DIO C57BL/6 mice [2]; across all groups) was “remained unchanged”. For the same molecule, the circulating triglyceride levels (DIO C57BL/6 mice [2]; across all groups) was “remained largely unchanged”, the HDL levels (DIO C57BL/6 mice [2]; serum) was “without a significant change” and the HDL-to-LDL ratio (DIO C57BL/6 mice [2]; serum) was “positive shift”. The free fatty acids (DIO C57BL/6 mice [2]; serum) was “trend toward reduced”, the total cholesterol levels (DIO C57BL/6 mice [2]; serum, did not reach statistical significance) was “downward trend” and the LDL (DIO C57BL/6 mice [2]; serum, vs HFD vehicle) was “significant decrease”. The ALP levels (DIO C57BL/6 mice [2]; serum, vs HFD-vehicle) was “significantly reduced”, the ALT levels (DIO C57BL/6 mice [2]; serum, vs HFD-vehicle) was “did not significantly alter” and the AST levels (DIO C57BL/6 mice [2]; serum, vs HFD-vehicle) was “did not significantly alter”. For the same molecule, the binding inhibition (MAO-A) was “unaffected”, the binding inhibition (MAO-B) was “unaffected” and the Emax (5-HT2B; BaF3, read-out: maximum response, calcium flux (percent of control response to serotonin at 0.25 μM), cytosolic Ca2+ mobilization, agonist mode) was 18.6%. For the same molecule, the “agonist activity at the 5-HT2B receptor” value (5-HT2B; calcium flux) was “did not act as an agonist”, the “decrease in total body weight” value (DIO C57BL/6 mice [3]; DIO mice, 40 mg/kg/day by gavage, compared to obese vehicle-treated group) was roughly 15% and the “adiposity associated with obesity” value (DIO C57BL/6 mice [3]; DIO mice, 40 mg/kg/day) was “reduced”. The “lean body mass ratio” value (DIO C57BL/6 mice [3]; DIO mice, 40 mg/kg/day) was “maintaining”, the net lean mass (DIO C57BL/6 mice [3]; DIO mice, 40 mg/kg/day) was “maintaining” and the overall fat mass (DIO C57BL/6 mice [3]; DIO mice, 40 mg/kg/day) was “reducing”. The body weight (DIO C57BL/6 mice [3]; HFD-fed (DIO) mice, 40 mg/kg/day by gavage) was “significantly reduced”.
